The target of series [1] is T1, human recombinant glutaminyl cyclase (hQC) (Homo sapiens, UniProt Q16769).
T1 construct: purchased Eurogentec AS-72230
As to the kind of experiment: In vitro determination of human QC inhibitory activity (SensoLyte Green Glutaminyl Cyclase Activity Assay Kit). The class given is biochemical. Here is the method: Basic statistical analysis was performed.

Series [2] has as its system primary mouse cortical neurons. As to the kind of experiment: LDH toxicity assay in mouse primary cortical neurons. The class given is cell-based. Here is the method: The compounds were diluted from 250 mM DMSO stocks to a 100 mM stock in DMSO. Thereafter, compounds were diluted to 100 μM, 20 μM, 5 μM, 1 μM, 0.2 μM, 0.05 μM, 0.01 μM and 0.001 μM dilution in medium, so that the final DMSO concentration in the well was 0.1% for all conditions. Stock solutions were stored at −20° C. until further use.
Isolation and treatment of primary mouse cortical neurons: Primary cortical neurons were prepared from timed pregnant wild-type C57BL/6JRccHsd mice at E16.5-E18. Animals were sacrificed by carbon dioxide and embryos were dissected in Calcium and Magnesium free Hanks Balanced Salt Solution (CMF-HBSS) containing 15 mM HEPES and 10 mM NaHCO3, pH 7.2. Embryos were decapitated, skin and skull gently removed and cortical hemispheres were separated. After removing meninges and brain stem, the cortex was isolated, chopped with a sterile razor blade in Chop solution (Hibernate-E without Calcium containing 2% B-27) and digested in 2 mg/mL papain (Worthington) dissolved in Hibernate-E without Calcium for 30 min at 30° C. Cortices were triturated for 10-15 times with a fire-polished silanized Pasteur pipette in Hibernate-E without Calcium containing 2% B-27, 0.01% DNaseI, 1 mg/mL BSA, and 1 mg/mL Ovomucoid Inhibitor. Undispersed pieces were allowed to settle by gravity for 1 min and the supernatant was centrifuged for 3 min at 228 g. The pellet was resuspended in Hibernate-E containing 2% B-27, 0.01% DNaseI, 1 mg/mL BSA, 1 mg/mL Ovomucoid Inhibitor and diluted with Hibernate-E containing 2% B-27. After the second centrifugation step (3 min at 228 g), the pellet was resuspended in nutrition medium without glutamate (Neurobasal, 2% B-27, 0.5 mM glutamine, 1% Penicillin-Streptomycin). Cells were counted in a hemacytometer and seeded in nutrition medium on poly-D-lysine pre-coated plates. Cells were cultured at 37° C.; 95% humidity and 5% CO2. All wells were handled the same way. On DIV8, cells were treated with the compounds for the evaluation of the neurotoxic effect. On DIV9, the MTT and LDH assays were performed as described below. The experiments were performed in six technical replicates for all groups per experiment.
LDH toxicity assay: Supernatants of cells were subjected to the lactate dehydrogenase (LDH) toxicity assay by using the Cytotoxicity Detection Kit (Roche Diagnostics, Cat. No: 11 644 793 001). Seventy μL of cell culture supernatant was transferred to clear 96-well plates. Seventy μL freshly prepared reaction mixture was added to each well and the mixture was incubated for 20 to 30 min at room temperature protected from light. Absorbance was measured at 492 nm and 620 nm as reference wavelength. Cell death was expressed as optical density (OD). Values were calculated as percent of control values (vehicle control).

The nature of series [3]: Parallel artificial membrane permeation assay for blood-brain barrier (PAMPA-BBB). The class given is in vitro ADME, porcine. As to conditions: for Papp: pig, PBS:EtOH (70:30), read-out: Blood-brain barrier permeability Pe; for CNS prediction: predictive penetration in the CNS from Pe. The method, then:
A parallel artificial membrane permeation assay for blood-brain barrier (PAMPA-BBB) was used to evaluate the brain penetration of compounds of formula I, following the method described by L. Di et al., “High throughput artificial membrane permeability assay for blood-brain barrier”, European Journal of Medicinal Chemistry 2003, vol. 38. pp. 223-232. The in vitro permeability (Pe) of the test compounds through a lipid extract of porcine brain membrane was determined. Assayed compounds were tested using a mixture of PBS:EtOH (70:30). Assay validation was made by comparing the experimental and reported permeability values of a set of fourteen commercial drugs and a lineal correlation between experimental and reported permeability values of the fourteen commercial drugs was obtained (y=1.678 x−1.447; R^2=0.9313). From this equation and taking into account the limits established by Di et al. for BBB permeation, the ranges of permeability were established, as follows. Compounds of high BBB permeation (CNS+): Pe (10^−6 cm s^−1)>5.26; compounds of low BBB permeation (CNS−): Pe (10^−6 cm s^−1)<1.91; and compounds of uncertain BBB permeation (CNS+/−): 5.26>Pe (10^−6 cm s^−1)>1.91. The permeability results are averages of three different experiments in triplicate and a predictive penetration in the CNS is also given (Table 5).

Series [4] concerns the target T2, recombinant human sEH (hsEH) (Homo sapiens, UniProt P34913).
T2 sequence (P34913 1-555): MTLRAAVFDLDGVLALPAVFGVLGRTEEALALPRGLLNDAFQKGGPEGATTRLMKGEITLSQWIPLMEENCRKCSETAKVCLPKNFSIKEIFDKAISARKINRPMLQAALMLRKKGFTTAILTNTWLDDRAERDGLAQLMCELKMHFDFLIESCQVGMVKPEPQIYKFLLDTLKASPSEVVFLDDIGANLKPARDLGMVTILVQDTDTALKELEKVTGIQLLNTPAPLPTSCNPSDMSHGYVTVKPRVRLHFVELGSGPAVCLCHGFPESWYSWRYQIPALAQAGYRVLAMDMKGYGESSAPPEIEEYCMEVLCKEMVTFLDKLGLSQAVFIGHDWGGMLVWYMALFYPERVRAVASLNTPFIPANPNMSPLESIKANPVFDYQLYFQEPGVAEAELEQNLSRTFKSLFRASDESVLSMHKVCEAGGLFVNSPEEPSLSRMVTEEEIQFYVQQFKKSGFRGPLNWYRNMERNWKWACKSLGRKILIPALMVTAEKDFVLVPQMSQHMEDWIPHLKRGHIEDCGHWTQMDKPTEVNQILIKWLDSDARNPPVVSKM
In words: In vitro determination of sEH inhibitory activity (fluorescent PHOME assay).
Procedure: Control compound (TPPU): N-[1-(1-Oxopropyl)-4-piperidinyl]-N′-[4-(trifluoromethoxy)phenyl]urea.
Five μL of DMSO were added to background and positive control wells, and then 5 μL of inhibitor solution were added in the inhibitor wells. Five μL of the solution of hsEH were added to the positive control and inhibitor wells and the mixture was stirred. A 1/21 dilution of the solution of PHOME with assay buffer was prepared according to the final volume required, and then 105 μL of each well were added. The plate was carefully shaken for 10 seconds and was incubated for 5 minutes at room temperature. […] The intensity of fluorescence was used to analyze and calculate the IC50 values. Results were obtained by regression analysis from at least three data points in a linear region of the curve. IC50 values are average of minimum three independent replicates.

T1 sequence (Q16769 29-361): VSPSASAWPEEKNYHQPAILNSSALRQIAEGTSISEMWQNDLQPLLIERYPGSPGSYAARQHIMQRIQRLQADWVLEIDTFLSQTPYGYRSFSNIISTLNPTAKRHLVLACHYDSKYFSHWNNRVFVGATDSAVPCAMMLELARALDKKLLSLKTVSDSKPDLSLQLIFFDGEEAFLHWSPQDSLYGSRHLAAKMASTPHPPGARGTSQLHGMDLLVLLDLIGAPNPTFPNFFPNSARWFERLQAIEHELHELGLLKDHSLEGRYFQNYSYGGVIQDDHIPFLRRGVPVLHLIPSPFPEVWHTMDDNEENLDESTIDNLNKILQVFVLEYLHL

Broadly, the IC50 is the concentration that gives 50% inhibition. Consider `CCC12CC3CC(C1)CC(NC(=O)NCCCn1cncc1C)(C3)C2` [Id, 1-(3-ethyladamantan-1-yl)-3-[3-(5-methyl-1H-imidazol-1-yl)propyl]urea], for which the IC50 in series [1] was 570 nM; in series [4] it was 3.3 nM. Besides, the “LDH toxicity assay (cell death), primary cortical neurons” value (from here on “LDH toxicity assay (cell death)”) in series [2] (compound 0.001 μM) is 114 % of vehicle control; in series [2] (compound 0.01 μM) it was 104 % of vehicle control; in series [2] (compound 0.05 μM), 100 % of vehicle control; in series [2] (compound 0.2 μM) it was 100 % of vehicle control; in series [2] (compound 1 μM), 99 % of vehicle control; in series [2] (compound 5 μM) it was 102 % of vehicle control. Also, the “LDH toxicity assay (cell death)” value in series [2] (compound 20 μM) is 109 % of vehicle control; in series [2] (compound 100 μM), 157 % of vehicle control. In addition, the Papp in series [3] was greater than 30 ×10⁻⁶ cm/s. In addition, in series [3], the CNS prediction entry was “CNS+ (Compounds of high BBB permeation (CNS+): Pe (10^−6 cm s^−1)>5.26)”.
In the case of `Cc1cncn1CCCNC(=O)NC1C2CC3CC(C2)CC1C3` (stereo not drawn) [Ii, 1-(adamantan-2-yl)-3-[3-(5-methyl-1H-imidazol-1-yl)propyl]urea], the results for the IC50 in series [1] and in series [4] were 189 nM and 4.3 nM, respectively. The “LDH toxicity assay (cell death)” value in series [2] (compound 0.001 μM) is recorded as 99 % of vehicle control; in series [2] (compound 0.01 μM) it was 97 % of vehicle control; in series [2] (compound 0.05 μM), 97 % of vehicle control; in series [2] (compound 0.2 μM), 94 % of vehicle control; in series [2] (compound 1 μM), 101 % of vehicle control; in series [2] (compound 5 μM) it was 100 % of vehicle control. The “LDH toxicity assay (cell death)” value in series [2] (compound 20 μM) is 97 % of vehicle control; in series [2] (compound 100 μM) it was 113 % of vehicle control. Besides, the Papp in series [3] is greater than 30 ×10⁻⁶ cm/s. The CNS prediction result in series [3] was “CNS+ (Compounds of high BBB permeation (CNS+): Pe (10^−6 cm s^−1)>5.26)”.
In the case of `Cc1cncn1CCCNC(=O)NC12CC3CC(CC(C)(C3)O1)C2` [Ir, 1-[3-(5-methyl-1H-imidazol-1-yl)propyl]-3-(3-methyl-2-oxaadamantan-1-yl)urea], the figures for the IC50 in series [1] and in series [4] were 139 nM and 860 nM, respectively. Moreover, the “LDH toxicity assay (cell death)” value is given as 100 % of vehicle control in series [2] (compound 0.001 μM); 100 % of vehicle control in series [2] (compound 0.01 μM); 101 % of vehicle control in series [2] (compound 0.05 μM); 101 % of vehicle control in series [2] (compound 0.2 μM); 100 % of vehicle control in series [2] (compound 1 μM); 100 % of vehicle control in series [2] (compound 5 μM). Besides, the entries for the “LDH toxicity assay (cell death)” value in series [2] (compound 20 μM) and in series [2] (compound 100 μM) were 101 % of vehicle control and 107 % of vehicle control, respectively. For the same compound, the Papp in series [3] was determined as 6.9 ×10⁻⁶ cm/s. Moreover, in series [3], the CNS prediction result was “CNS+ (Compounds of high BBB permeation (CNS+): Pe (10^−6 cm s^−1)>5.26)”.
Turning to `CCC12CC3CC(C1)CC(NC(=O)NCCCn1cncc1C)(C3)O2` [Is, 1-(3-ethyl-2-oxaadamantan-1-yl)-3-[3-(5-methyl-1H-imidazol-1-yl)propyl]urea], the IC50 in series [1] turned out to be 96 nM; in series [4], 2800 nM. In addition, the “LDH toxicity assay (cell death)” value in series [2] (compound 0.001 μM) is listed as 96 % of vehicle control; in series [2] (compound 0.01 μM), 97 % of vehicle control; in series [2] (compound 0.05 μM), 99 % of vehicle control; in series [2] (compound 0.2 μM), 98 % of vehicle control; in series [2] (compound 1 μM), 107 % of vehicle control; in series [2] (compound 5 μM) it was 102 % of vehicle control. For the same compound, the “LDH toxicity assay (cell death)” value in series [2] (compound 20 μM) was 113 % of vehicle control; in series [2] (compound 100 μM), 107 % of vehicle control. Also, the Papp in series [3] was greater than 30 ×10⁻⁶ cm/s. Also, the CNS prediction result in series [3] was “CNS+ (Compounds of high BBB permeation (CNS+): Pe (10^−6 cm s^−1)>5.26)”.
